# Assay results published in patent US20100197724A1, “6.5 -PYRROLOPIPERIDINE TACHYKININ RECEPTOR ANTAGONISTS” (priority 2007, published 2010).
# Molecular target: T1, human neurokinin-1 receptor (NK1R) (Homo sapiens, UniProt P25103)
# T1 construct: expressed in transfected cells
# Assay: 125I-substance P binding assay of human NK1R expressed in COS or CHO cells
# Conditions: competition with 125I-substance P
# Experimental: Receptor Expression in COS: To express the cloned human neurokinin-1 receptor (NK1R) transiently in COS, the cDNA for the human NK1R was cloned into the expression vector pCDM9 which was derived from pCDM8 (INVITROGEN) by inserting the ampicillin resistance gene (nucleotide 1973 to 2964 from BLUESCRIPT SK+) into the Sac II site. Transfection of 20 ug of the plasmid DNA into 10 million COS cells was achieved by electroporation in 800 ul of transfection buffer (135 mM NaCl, 1.2 mM CaCl2, 1.2 mM MgCl2, 2.4 mM K2HPO4, 0.6 mM KH2PO4, 10 mM glucose, 10 mM HEPES pH 7.4) at 260 V and 950 uF using the IBI GENEZAPPER (IBI, New Haven, Conn.). The cells were incubated in 10% fetal calf serum, 2 mM glutamine, 100 U/ml penicillin-streptomycin, and 90% DMEM media (GIBCO, Grand Island, N.Y.) in 5% CO2 at 37° C. for three days before the binding assay.
# Stable Expression in CHO: To establish a stable cell line expressing the cloned human NK1R, the cDNA was subcloned into the vector pRcCMV (INVITROGEN). Transfection of 20 ug of the plasmid DNA into CHO cells was achieved by electroporation in 800 ul of transfection buffer supplemented with 0.625 mg/ml Herring sperm DNA at 300 V and 950 uF using the IBI GENEZAPPER (IBI). The transfected cells were incubated in CHO media [10% fetal calf serum, 100 U/ml penicillin-streptomycin, 2 mM glutamine, 1/500 hypoxanthine-thymidine (ATCC), 90% IMDM media (JRH BIOSCIENCES, Lenexa, Kans.), 0.7 mg/ml G418 (GIBCO)] in 5% CO2 at 37° C. until colonies were visible. Each colony was separated and propagated. The cell clone with the highest number of human NK1R was selected for subsequent applications such as drug screening.
# Assay Protocol using COS or CHO: The binding assay of human NK1R expressed in either COS or CHO cells is based on the use of ^125I-substance P (^125I-SP, from DU PONT, Boston, Mass.) as a radioactively labeled ligand which competes with unlabeled substance P or any other ligand for binding to the human NK1R. Monolayer cell cultures of COS or CHO were dissociated by the non-enzymatic solution (SPECIALTY MEDIA, Lavallette, N.J.) and resuspended in appropriate volume of the binding buffer (50 mM Tris pH 7.5, 5 mM MnCl2, 150 mM NaCl, 0.04 mg/ml bacitracin, 0.004 mg/ml leupeptin, 0.2 mg/ml BSA, 0.01 mM phosphoramidon) such that 200 ul of the cell suspension would give rise to about 10,000 cpm of specific ^125I-SP binding (approximately 50,000 to 200,000 cells). In the binding assay, 200 ul of cells were added to a tube containing 20 ul of 1.5 to 2.5 nM of ^125I-SP and 20 ul of unlabeled substance P or any other test compound. The tubes were incubated at 4° C. or at room temperature for 1 hour with gentle shaking. The bound radioactivity was separated from unbound radioactivity by GF/C filter (BRANDEL, Gaithersburg, Md.) which was pre-wetted with 0.1% polyethylenimine. The filter was washed with 3 ml of wash buffer (50 mM Tris pH 7.5, 5 mM MnCl2, 150 mM NaCl) three times and its radioactivity was determined by gamma counter. The activation of phospholipase C by NK1R may also be measured in CHO cells expressing the human NK1R by determining the accumulation of inositol monophosphate which is a degradation product of IP3. CHO cells are seeded in 12-well plate at 250,000 cells per well. After incubating in CHO media for 4 days, cells are loaded with 0.025 uCi/ml of ^3H-myoinositol by overnight incubation. The extracellular radioactivity is removed by washing with phosphate buffered saline. LiCl is added to the well at final concentration of 0.1 mM with or without the test compound, and incubation is continued at 37° C. for […]. Substance P is added to the well at final concentration of 0.3 nM to activate the human NK1R. After 30 min of incubation at 37° C., the media is removed and 0.1 N HCl is added. Each well is sonicated at 4° C. and extracted with CHCl3/methanol (1:1). The aqueous phase is applied to a 1 ml Dowex AG 1X8 ion exchange column. […]
# T1 sequence (P25103 whole entry): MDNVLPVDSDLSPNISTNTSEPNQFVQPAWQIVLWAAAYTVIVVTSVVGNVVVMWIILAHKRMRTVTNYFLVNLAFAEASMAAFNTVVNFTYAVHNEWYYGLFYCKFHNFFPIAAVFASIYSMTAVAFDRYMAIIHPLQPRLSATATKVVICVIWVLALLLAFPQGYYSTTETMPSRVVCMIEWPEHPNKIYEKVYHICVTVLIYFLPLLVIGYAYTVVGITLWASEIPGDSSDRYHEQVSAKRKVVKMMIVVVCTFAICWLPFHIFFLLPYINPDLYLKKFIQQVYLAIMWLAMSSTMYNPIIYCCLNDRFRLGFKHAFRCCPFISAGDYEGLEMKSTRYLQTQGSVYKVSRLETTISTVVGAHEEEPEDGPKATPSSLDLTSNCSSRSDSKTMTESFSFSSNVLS
row,SMILES,IC50
1,"Cc1ccccc1[C@H]1[C@@H]2CN(C(=O)[C@H](C)O)C[C@H]2CCN1C(=O)N(C)[C@H](C)c1cc(C(F)(F)F)cc(C(F)(F)F)c1 [Example 17, (3aS,4R,7aS)-N-{(1R)-1-[3,5-bis(trifluoromethyl)phenyl]ethyl}-2-[(2S)-2-hydroxypropanoyl]-N-methyl-4-(2-methylphenyl)octahydro-5H-pyrrolo[3,4-c]pyridine-5-carboxamide]",0.081 nM
2,"O=C1C=C(N2C[C@@H]3CCN(C(=O)Cc4cc(C(F)(F)F)cc(C(F)(F)F)c4)[C@H](c4ccc(F)cc4)[C@H]3C2)CC1 (racemic) [Example 1, 3-[(3aSR,4RS,7aSR)-5-{[3,5-bis(trifluoromethyl)phenyl]acetyl}-4-(4-fluorophenyl)octahydro-2H-pyrrolo[3,4-c]pyridin-2-yl]cyclcopent-2-en-1-one]",1.7 nM
3,"O=C(CN1CCOC1=O)N1C[C@H]2CCN(C(=O)Cc3cc(C(F)(F)F)cc(C(F)(F)F)c3)[C@@H](c3ccc(F)cc3)[C@@H]2C1 (racemic) [Example 5, 3-{2-[(3aSR,4RS,7aSR)-5-{[3,5-bis(trifluoromethyl)phenyl]acetyl}-4-(4-fluorophenyl)octahydro-2H-pyrrolo[3,4-c]pyridin-2-yl]-2-oxoethyl}-1,3-oxazolidin-2-one]",3.5 nM
4,"Cc1ccccc1[C@H]1[C@@H]2CN(Cc3ccccc3)C[C@H]2CCN1C(=O)N(C)[C@H](C)c1cc(C(F)(F)F)cc(C(F)(F)F)c1 [Example 8, (3aS,4R,7aS)-2-benzyl-N-{(1R)-1-[3,5-bis(trifluoromethyl)phenyl]ethyl}-N-methyl-4-(2-methylphenyl)octahydro-5H-pyrrolo[3,4-c]pyridine-5-carboxamide]",1.19 nM
5,"Cc1cc(F)ccc1[C@H]1[C@@H]2CN(Cc3ccccc3)C[C@H]2CCN1C(=O)N(C)[C@H](C)c1cc(C(F)(F)F)cc(C(F)(F)F)c1 [Example 25, (3aS,4R,7aS)-2-benzyl-N-{(1R)-1-[3,5-bis(trifluoromethyl)phenyl]ethyl}-4-(4-fluoro-2-methylphenyl)-N-methyloctahydro-5H-pyrrolo[3,4-c]pyridine-5-carboxamide]",0.052 nM
6,"Cc1ccccc1[C@H]1[C@@H]2CN(C3=CC(=O)CC3)C[C@H]2CCN1C(=O)N(C)[C@H](C)c1cc(C(F)(F)F)cc(C(F)(F)F)c1 [Example 10, (3aS,4R,7aS)-N-{(1R)-1-[3,5-bis(trifluoromethyl)phenyl]ethyl}-N-methyl-4-(2-methylphenyl)-2-(3-oxocyclopent-1-en-1-yl)octahydro-5H-pyrrolo[3,4-c]-pyridine-5-carboxamide]",0.066 nM
7,"Cc1ccccc1[C@H]1[C@@H]2CN(CC(N)=O)C[C@H]2CCN1C(=O)N(C)[C@H](C)c1cc(C(F)(F)F)cc(C(F)(F)F)c1 [Example 15, (3aS,4R,7aS)-2-(2-amino-2-oxoethyl)-N-{(1R)-1-[3,5-bis(trifluoromethyl)phenyl]ethyl}-N-methyl-4-(2-methylphenyl)octahydro-5H-pyrrolo[3,4-c]pyridine-5-carboxamide]",0.071 nM
8,"CC(C(=O)N1CC[C@@H]2CN(C3=CC(=O)CC3)CC2[C@@H]1c1ccc(F)cc1)c1cc(C(F)(F)F)cc(C(F)(F)F)c1 (mixture of isomers) [Example 3, 3-[(3aSR,4RS,7aSR)-5-{2-[3,5-bis(trifluoromethyl)phenyl]propanoyl}-4-(4-fluorophenyl)octahydro-2H-pyrrolo[3,4-c]pyridin-2-yl]cyclopent-2-en-1-one]",12 nM
9,CC(C)(C(=O)N1CC[C@@H]2CN(C3=CC(=O)CC3)C[C@H]2[C@@H]1c1ccc(F)cc1)c1cc(C(F)(F)F)cc(C(F)(F)F)c1 (racemic) [Example 4],0.17 nM
10,Cc1ccccc1[C@H]1C2CN(CC(C)(C)CO)C[C@H]2CCN1C(=O)N(C)[C@H](C)c1cc(C(F)(F)F)cc(C(F)(F)F)c1 (stereo partly drawn) [Example 23],0.094 nM

# Continued, values first:
row,IC50,SMILES
1,0.115 nM,Cc1cc(F)ccc1[C@H]1C2CN(C3=CC(=O)OC3)C[C@H]2CCN1C(=O)N(C)[C@H](C)c1cc(C(F)(F)F)cc(C(F)(F)F)c1 (stereo partly drawn) [Example 29]
2,0.111 nM,"Cc1cc(F)ccc1[C@H]1[C@@H]2CN(C3CCOCC3)C[C@H]2CCN1C(=O)N(C)[C@H](C)c1cc(C(F)(F)F)cc(C(F)(F)F)c1 [Example 35, (3aS,4R,7aS)-N-{(1R)-1-[3,5-bis(trifluoromethyl)phenyl]ethyl}-4-(4-fluoro-2-methylphenyl)-N-methyl-2-(tetrahydro-2H-pyran-4-yl)octahydro-5H-pyrrolo[3,4-c]pyridine-5-carboxamide]"
3,0.066 nM,"Cc1cc(F)ccc1[C@H]1[C@@H]2CN(C(=O)C(C)(C)C)C[C@H]2CCN1C(=O)N(C)[C@H](C)c1cc(C(F)(F)F)cc(C(F)(F)F)c1 [Example 33, (3aS,4R,7aS)-N-{(1R)-1-[3,5-bis(trifluoromethyl)phenyl]ethyl}-2-(2,2-dimethylpropanoyl)-4-(4-fluoro-2-methylphenyl)-N-methyloctahydro-5H-pyrrolo[3,4-c]pyridine-5-carboxamide]"
4,0.057 nM,"Cc1cc(F)ccc1[C@H]1[C@@H]2CN(C(=O)[C@@H](C)O)C[C@H]2CCN1C(=O)N(C)[C@H](C)c1cc(C(F)(F)F)cc(C(F)(F)F)c1 [Example 31, (3aS,4R,7aS)-N-{(1R)-1-[3,5-bis(trifluoromethyl)phenyl]ethyl}-4-(4-fluoro-2-methylphenyl)-2-[(2R)-2-hydroxypropanoyl]-N-methyloctahydro-5H-pyrrolo[3,4-c]pyridine-5-carboxamide]"
5,0.077 nM,"Cc1cc(F)ccc1[C@H]1[C@@H]2CN(C3=NC(=O)CO3)C[C@H]2CCN1C(=O)N(C)[C@H](C)c1cc(C(F)(F)F)cc(C(F)(F)F)c1 [Example 28, (3aS,4R,7aS)-N-{(1R)-1-[3,5-bis(trifluoromethyl)phenyl]ethyl}-4-(4-fluoro-2-methylphenyl)-N-methyl-2-(4-oxo-4,5-dihydro-1,3-oxazol-2-yl)octahydro-5H-pyrrolo[3,4-c]pyridine-5-carboxamide]"
6,0.108 nM,"CC(=O)N1CCC(N2C[C@H]3CCN(C(=O)N(C)[C@H](C)c4cc(C(F)(F)F)cc(C(F)(F)F)c4)[C@@H](c4ccc(F)cc4C)[C@@H]3C2)CC1 [Example 36, (3aS,4R,7aS)-2-(1-acetylpiperidin-4-yl)-N-{(1R)-1-[3,5-bis(trifluoromethyl)phenyl]ethyl}-4-(4-fluoro-2-methylphenyl)-N-methyloctahydro-5H-pyrrolo[3,4-c]pyridine-5-carboxamide]"
7,0.072 nM,"Cc1cc(F)ccc1[C@H]1[C@@H]2CN(C(=O)[C@H](C)O)C[C@H]2CCN1C(=O)N(C)[C@H](C)c1cc(C(F)(F)F)cc(C(F)(F)F)c1 [Example 30, (3aS,4R,7aS)-N-{(1R)-1-[3,5-bis(trifluoromethyl)phenyl]ethyl}-4-(4-fluoro-2-methylphenyl)-2-[(2S)-2-hydroxypropanoyl]-N-methyloctahydro-5H-pyrrolo[3,4-c]pyridine-5-carboxamide]"
8,0.048 nM,Cc1cc(F)ccc1[C@H]1C2CN(C(=O)C3CCOCC3)C[C@H]2CCN1C(=O)N(C)[C@H](C)c1cc(C(F)(F)F)cc(C(F)(F)F)c1 (stereo partly drawn) [Example 34]
